Columns and labels:
PLK1 [1] = molecular target: T1, PLK1 (Homo sapiens, UniProt P53350); test: competition binding constant assay
Protocol: (§3) Kinases were produced in HEK-293 cells and subsequently tagged with DNA for quantitative polymerase chain reaction (qPCR) detection. […] The beads were blocked with excess biotin and washed with blocking buffer (SeaBlock, 1% bovine serum albumin, 0.05% Tween-20, 1 mM dithiothreitol (DTT)). […] The kinase concentration in the eluates was measured by qPCR.

ERBB2/HER2 = ERBB2/HER2 (Homo sapiens, UniProt P04626); test: kinase activity in vitro; assay type: biochemical
Aurora A = Aurora A (Homo sapiens, UniProt O14965); test: kinase activity in vitro; assay type: biochemical
JNK2 = JNK2 (Homo sapiens, UniProt P45984); test: kinase activity in vitro; assay type: biochemical
MDA-MB-231 [2] = test: mitotic catastrophe, nuclear staining; assay type: cell-based, human; details: MDA-MB-231, 0.5 μM, 30 h
Protocol: (§1) Then treated tumor cells were washed with PBS and stain with Hoechst 33342 in the dark for 15 min. Image were taken by fluorescence microscopy for morphological changes after YLT-11 treatment.

MDA-MB-468 [3] = test: mitotic catastrophe, nuclear staining; assay type: cell-based, human; details: MDA-MB-468, 0.5 μM, 30 h
Protocol: as §1

TTBK1 = TTBK1 (Homo sapiens, UniProt Q5TCY1); test: kinase activity in vitro; assay type: biochemical
NEK2 = NEK2 (Homo sapiens, UniProt P51955); test: kinase activity in vitro; assay type: biochemical
NEK2, sequence (P51955 whole entry): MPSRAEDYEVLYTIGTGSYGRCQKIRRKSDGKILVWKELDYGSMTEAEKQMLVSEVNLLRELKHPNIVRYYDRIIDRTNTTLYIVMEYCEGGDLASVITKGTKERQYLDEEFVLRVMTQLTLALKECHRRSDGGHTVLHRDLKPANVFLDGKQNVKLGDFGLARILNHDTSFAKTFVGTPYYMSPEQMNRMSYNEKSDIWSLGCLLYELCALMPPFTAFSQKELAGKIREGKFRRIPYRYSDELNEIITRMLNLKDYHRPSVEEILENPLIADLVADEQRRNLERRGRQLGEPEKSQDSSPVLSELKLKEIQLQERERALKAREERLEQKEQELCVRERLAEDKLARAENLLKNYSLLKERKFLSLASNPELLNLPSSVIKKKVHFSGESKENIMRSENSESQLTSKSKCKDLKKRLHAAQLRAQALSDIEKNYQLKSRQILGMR

HCC1954 = test: cells; details: Homo sapiens, HCC1954, read-out: IC50 proliferation
Protocol: (§2) The IC50 values were calculated using the GraphPad Prism software, each assay was replicated 3 times.

MDA-MB-435 = test: cells; details: Homo sapiens, MDA-MB-435, read-out: IC50 proliferation
Protocol: as §2

BT474 = test: cells; details: Homo sapiens, BT-474, read-out: IC50 proliferation
Protocol: as §2

ZR-75-1 = test: cells; details: Homo sapiens, ZR-75-1, read-out: IC50 proliferation
Protocol: as §2

MDA-MB-436 = test: cells; details: Homo sapiens, MDA-MB-436, read-out: IC50 proliferation
Protocol: as §2

MDA-MB-231 [4] = test: cells; details: Homo sapiens, MDA-MB-231, read-out: IC50 proliferation
Protocol: as §2

SKBR-3 = test: cells; details: Homo sapiens, SK-BR-3, read-out: IC50 proliferation
Protocol: as §2

ZR-75-30 = test: cells; details: Homo sapiens, ZR-75-30, read-out: IC50 proliferation
Protocol: as §2

MCF-7 = test: cells; details: Homo sapiens, MCF7, read-out: IC50 proliferation
Protocol: as §2

MCF-10A = test: cells; details: Homo sapiens, read-out: IC50 proliferation
Protocol: as §2

MDA-MB-468 [5] = test: cells; details: Homo sapiens, MDA-MB-468, read-out: IC50 proliferation
Protocol: as §2

BT549 = test: cells; details: Homo sapiens, BT-549, read-out: IC50 proliferation
Protocol: as §2

MDA-MB-453 = test: cells; details: Homo sapiens, MDA-MB-453, read-out: IC50 proliferation
Protocol: as §2

TNBC cell lines = test: cells; details: Homo sapiens, read-out: IC50 proliferation, range over TNBC cell lines
Protocol: as §2

[6] = tested on: MDA-MB-468 tumor xenograft; details: MDA-MB-468 xenograft, 90 mg/kg p.o. every day
TTBK2 = TTBK2 (Homo sapiens, UniProt Q6IQ55); test: kinase activity in vitro; assay type: biochemical
MCF-7 tumor xenograft = details: MCF-7 xenograft, 90 mg/kg p.o. every day
PLK1 [7] = molecular target: T1, PLK1; test: kinase activity in vitro; assay type: biochemical
[8] = tested on: MDA-MB-231 tumor xenograft; details: MDA-MB-231 xenograft, 90 mg/kg p.o. every day
MDA-MB-231 xenografts = test: immunohistochemical analysis of tumor tissues; details: MDA-MB-231 tumor tissue
Text: Tumor tissues obtained from the animal models were immersed in 4% paraformaldehyde. After washing with running tap water overnight, the tissues dehydrated trough a serial alcohol gradient and embedded in paraffin, Paraffin-embedded tumor sections were stained with primary antibodies (Ki67, cleaved caspase-3, p21, CDC25C, CyclinB1) using the DAB Detection Kit. The images were captured with a Carl Zeiss digital camera attached to a light microscope.

sub-acute toxicity test = assay type: in vivo, BALB/c mice; details: single oral dose 1 g/kg, observed 15 days
Text: Then blood of the mice was obtained for serum biochemistry and hematological analysis using a Hitachi 7200 Blood Chemistry Analyzer and a Nihon Kohdern MEK-5216K Automatic Hematology Analyzer. The heart, liver, spleen, lung and kidney were fixed and routinely processed and embedded in paraﬃn for hematoxylin and eosin (H&E) staining analysis.

PLK3 [9] = molecular target: T2, PLK3 (Homo sapiens, UniProt Q9H4B4); test: competition binding constant assay
T2 sequence (Q9H4B4 whole entry): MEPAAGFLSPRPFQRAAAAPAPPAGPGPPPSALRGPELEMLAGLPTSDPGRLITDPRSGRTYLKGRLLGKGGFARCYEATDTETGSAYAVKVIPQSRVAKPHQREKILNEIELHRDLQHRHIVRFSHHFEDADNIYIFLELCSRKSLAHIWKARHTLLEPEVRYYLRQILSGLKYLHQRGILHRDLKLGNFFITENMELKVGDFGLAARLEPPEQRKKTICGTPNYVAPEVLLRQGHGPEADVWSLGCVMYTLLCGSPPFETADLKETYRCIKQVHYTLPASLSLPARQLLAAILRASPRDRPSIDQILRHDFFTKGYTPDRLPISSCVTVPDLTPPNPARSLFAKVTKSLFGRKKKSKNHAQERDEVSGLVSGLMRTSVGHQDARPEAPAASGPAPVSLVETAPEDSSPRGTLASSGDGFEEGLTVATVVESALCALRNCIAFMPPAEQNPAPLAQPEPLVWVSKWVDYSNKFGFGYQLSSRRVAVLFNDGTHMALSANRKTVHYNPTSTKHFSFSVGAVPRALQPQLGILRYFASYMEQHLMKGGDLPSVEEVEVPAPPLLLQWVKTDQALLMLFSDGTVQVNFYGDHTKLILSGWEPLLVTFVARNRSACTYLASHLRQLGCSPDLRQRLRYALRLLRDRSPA
Protocol: as §3

FGFR1 = FGFR1 (Homo sapiens, UniProt P11362); test: kinase activity in vitro; assay type: biochemical
PLK2 [10] = molecular target: T3, PLK2 (Homo sapiens, UniProt Q9NYY3); test: kinase activity in vitro; assay type: biochemical
T3 construct: made in house; host or cells: T7 phage in E. coli (BL21-derived) or HEK-293 cells
T3 sequence (Q9NYY3 whole entry): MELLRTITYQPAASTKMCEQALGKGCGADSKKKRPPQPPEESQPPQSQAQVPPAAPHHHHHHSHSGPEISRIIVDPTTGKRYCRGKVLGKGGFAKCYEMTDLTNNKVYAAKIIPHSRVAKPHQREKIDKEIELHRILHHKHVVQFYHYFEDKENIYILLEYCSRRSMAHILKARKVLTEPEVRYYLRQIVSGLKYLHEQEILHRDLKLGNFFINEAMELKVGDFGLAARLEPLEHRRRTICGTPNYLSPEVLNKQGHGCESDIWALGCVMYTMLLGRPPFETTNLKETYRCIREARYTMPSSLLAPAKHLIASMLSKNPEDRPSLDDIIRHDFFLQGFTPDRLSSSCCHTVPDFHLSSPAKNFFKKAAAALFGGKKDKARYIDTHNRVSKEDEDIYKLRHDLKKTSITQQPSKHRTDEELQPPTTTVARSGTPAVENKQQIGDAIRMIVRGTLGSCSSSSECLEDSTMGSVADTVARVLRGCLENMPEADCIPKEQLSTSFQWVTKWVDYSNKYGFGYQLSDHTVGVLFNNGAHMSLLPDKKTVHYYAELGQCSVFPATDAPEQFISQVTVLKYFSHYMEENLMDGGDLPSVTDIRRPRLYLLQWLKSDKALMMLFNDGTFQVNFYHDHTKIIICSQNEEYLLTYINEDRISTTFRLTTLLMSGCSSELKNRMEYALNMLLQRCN

PLK3 [11] = molecular target: T2, PLK3; test: kinase activity in vitro; assay type: biochemical
TOPK = TOPK (Homo sapiens, UniProt Q96KB5); test: kinase activity in vitro; assay type: biochemical
TOPK, sequence (Q96KB5 whole entry): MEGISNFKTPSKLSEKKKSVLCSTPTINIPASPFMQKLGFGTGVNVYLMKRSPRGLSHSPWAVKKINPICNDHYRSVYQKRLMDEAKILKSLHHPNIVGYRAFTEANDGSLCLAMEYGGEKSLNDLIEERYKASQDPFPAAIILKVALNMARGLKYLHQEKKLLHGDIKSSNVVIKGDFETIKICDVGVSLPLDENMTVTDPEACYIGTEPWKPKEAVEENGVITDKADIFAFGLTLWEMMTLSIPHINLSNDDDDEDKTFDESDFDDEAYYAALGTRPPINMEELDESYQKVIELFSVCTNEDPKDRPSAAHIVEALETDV

breast xenograft models = test: breast tumor xenograft models (overall, tolerability); assay type: in vivo, BALB/c nude mice
PLK2 [12] = molecular target: T3, PLK2; test: competition binding constant assay
Protocol: as §3

EGFR = EGFR (Homo sapiens, UniProt P00533); test: kinase activity in vitro; assay type: biochemical
[13] = tested on: MDA-MB-468 and MDA-MB-231; test: centriole number by immunofluorescence (centrin 2, γ-tublin); assay type: cell-based, human; details: 24 h
Protocol: Tumor cells were seeded in Millicell EZ SLIDE 8 well glass slide (Millipore, Ireland) at the density of 2 × 10^4 per well. […] Then cells were incubated with primary antibody overnight at 4 ℃ after blocked with 1% BSA. Goat anti-rabbit and goat anti-mouse secondary antibodies conjugated to FITC and […] were used to detect primary antibodies. Cell nucleuses were stained with DAPI. Images were taken using a Leica cofocusing microscope.

T1 sequence (P53350 whole entry): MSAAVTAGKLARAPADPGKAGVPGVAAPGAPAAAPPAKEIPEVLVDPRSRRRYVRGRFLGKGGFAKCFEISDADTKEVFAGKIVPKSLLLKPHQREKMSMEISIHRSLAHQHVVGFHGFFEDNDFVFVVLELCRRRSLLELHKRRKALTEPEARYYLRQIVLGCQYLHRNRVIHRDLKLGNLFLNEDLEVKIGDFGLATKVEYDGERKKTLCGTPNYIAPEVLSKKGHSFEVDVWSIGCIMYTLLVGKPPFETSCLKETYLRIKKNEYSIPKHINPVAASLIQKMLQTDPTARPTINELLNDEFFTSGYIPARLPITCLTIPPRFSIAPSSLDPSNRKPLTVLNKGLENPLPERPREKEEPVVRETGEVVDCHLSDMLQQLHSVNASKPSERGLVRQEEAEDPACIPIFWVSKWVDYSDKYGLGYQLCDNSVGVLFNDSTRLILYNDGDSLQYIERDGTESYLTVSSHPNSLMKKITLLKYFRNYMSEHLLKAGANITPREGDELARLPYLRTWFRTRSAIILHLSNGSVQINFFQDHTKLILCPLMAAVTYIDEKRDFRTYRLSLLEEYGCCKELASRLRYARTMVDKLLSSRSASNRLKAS
Aurora A, sequence (O14965 whole entry): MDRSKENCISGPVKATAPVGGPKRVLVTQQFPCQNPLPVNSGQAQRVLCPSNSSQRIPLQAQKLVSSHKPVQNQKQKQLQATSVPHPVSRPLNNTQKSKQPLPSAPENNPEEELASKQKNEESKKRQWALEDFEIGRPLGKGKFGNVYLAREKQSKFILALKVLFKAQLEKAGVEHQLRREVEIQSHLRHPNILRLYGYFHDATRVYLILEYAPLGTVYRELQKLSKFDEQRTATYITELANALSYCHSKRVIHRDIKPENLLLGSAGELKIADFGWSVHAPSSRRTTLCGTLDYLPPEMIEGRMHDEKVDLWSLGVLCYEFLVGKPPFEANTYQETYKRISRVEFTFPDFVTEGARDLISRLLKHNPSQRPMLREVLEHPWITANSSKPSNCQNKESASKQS
ERBB2/HER2, sequence (P04626 23-1255): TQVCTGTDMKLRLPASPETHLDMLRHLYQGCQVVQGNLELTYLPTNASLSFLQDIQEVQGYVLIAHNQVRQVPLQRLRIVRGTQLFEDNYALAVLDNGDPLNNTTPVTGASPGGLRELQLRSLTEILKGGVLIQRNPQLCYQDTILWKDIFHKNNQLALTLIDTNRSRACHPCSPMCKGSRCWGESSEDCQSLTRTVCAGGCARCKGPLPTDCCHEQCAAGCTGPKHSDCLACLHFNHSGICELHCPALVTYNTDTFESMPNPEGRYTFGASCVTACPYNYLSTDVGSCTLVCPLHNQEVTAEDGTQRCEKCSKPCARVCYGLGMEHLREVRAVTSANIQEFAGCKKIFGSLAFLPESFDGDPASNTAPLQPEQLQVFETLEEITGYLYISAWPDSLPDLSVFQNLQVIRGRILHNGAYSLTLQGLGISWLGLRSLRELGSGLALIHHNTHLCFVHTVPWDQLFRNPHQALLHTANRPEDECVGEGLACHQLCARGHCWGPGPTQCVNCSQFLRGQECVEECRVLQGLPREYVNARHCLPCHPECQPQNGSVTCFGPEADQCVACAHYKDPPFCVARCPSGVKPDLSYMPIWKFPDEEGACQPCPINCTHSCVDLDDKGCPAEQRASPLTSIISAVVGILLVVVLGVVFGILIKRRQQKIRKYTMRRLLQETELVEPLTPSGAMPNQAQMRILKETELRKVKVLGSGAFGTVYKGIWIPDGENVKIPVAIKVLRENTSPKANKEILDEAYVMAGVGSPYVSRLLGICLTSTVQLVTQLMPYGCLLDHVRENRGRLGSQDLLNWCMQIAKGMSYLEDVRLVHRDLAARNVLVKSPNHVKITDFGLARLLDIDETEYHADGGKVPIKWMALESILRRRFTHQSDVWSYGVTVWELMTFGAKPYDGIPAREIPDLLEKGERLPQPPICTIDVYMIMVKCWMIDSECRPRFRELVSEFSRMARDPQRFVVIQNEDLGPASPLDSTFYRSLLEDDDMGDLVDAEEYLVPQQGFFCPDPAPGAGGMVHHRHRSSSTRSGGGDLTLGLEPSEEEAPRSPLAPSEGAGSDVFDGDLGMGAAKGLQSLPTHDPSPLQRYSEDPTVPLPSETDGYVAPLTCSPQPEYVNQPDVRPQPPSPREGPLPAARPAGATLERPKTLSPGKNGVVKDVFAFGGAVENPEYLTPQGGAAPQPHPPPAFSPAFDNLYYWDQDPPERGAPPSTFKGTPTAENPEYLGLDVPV
JNK2, sequence (P45984 whole entry): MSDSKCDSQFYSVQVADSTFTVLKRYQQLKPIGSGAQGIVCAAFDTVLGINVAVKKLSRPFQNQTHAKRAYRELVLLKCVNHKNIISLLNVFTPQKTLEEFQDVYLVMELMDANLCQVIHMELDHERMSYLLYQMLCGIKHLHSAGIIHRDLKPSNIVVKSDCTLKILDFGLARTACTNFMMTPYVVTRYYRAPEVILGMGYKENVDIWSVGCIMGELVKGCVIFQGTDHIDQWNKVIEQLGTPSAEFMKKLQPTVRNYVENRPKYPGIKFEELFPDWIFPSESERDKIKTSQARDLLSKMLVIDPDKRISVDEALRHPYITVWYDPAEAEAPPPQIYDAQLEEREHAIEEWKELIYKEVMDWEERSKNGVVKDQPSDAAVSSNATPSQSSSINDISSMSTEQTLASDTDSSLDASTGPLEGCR

CC(=O)Nc1nccc(-c2ccc3c(/C=C/c4ccc(CN(C)C)cc4)n[nH]c3c2)n1 [YLT-11, (E)-N-(4-(3-(4-((dimethylamino)methyl)styryl)-1H-indazol-6-yl)pyrimidin-2-yl)acetamide]
Kd (PLK1 [1]): > 10 µM | IC50 (ERBB2/HER2): 0.539 µM | IC50 (Aurora A): 0.468 µM | IC50 (JNK2): 2.7 µM | Percentage of cells with mitotic catastrophe (MDA-MB-231 [2]): about 58% | Percentage of cells with mitotic catastrophe (MDA-MB-468 [3]): approximately 67% | IC50 (TTBK1): 56.7 µM | IC50 (NEK2): 0.332 µM | IC50 (HCC1954): 0.17 µM | IC50 (MDA-MB-435): 0.154 µM | IC50 (BT474): 0.163 µM | IC50 (ZR-75-1): 0.223 µM | IC50 (MDA-MB-436): 0.08 µM | IC50 (MDA-MB-231 [4]): 0.12 µM | IC50 (SKBR-3): 0.231 µM | IC50 (ZR-75-30): 0.184 µM | IC50 (MCF-7): 0.074 µM | IC50 (MCF-10A): > 10 µM | IC50 (MDA-MB-468 [5]): 0.068 µM | IC50 (BT549): 0.073 µM | IC50 (MDA-MB-453): 0.21 µM | IC50 (TNBC cell lines): 0.068 to 0.12 µM | tumor inhibition rate [6]: 82.5% | IC50 (TTBK2): 8.49 µM | tumor inhibition rate (MCF-7 tumor xenograft): 68% | IC50 (PLK1 [7]): 4.78 µM | tumor inhibition rate [8]: 76.7% | cleaved caspase-3-positive cells (MDA-MB-231 xenografts; vehicle 12.3 ± 5.1): 66 ± 7.3% | Ki67-positive cells (MDA-MB-231 xenografts; vehicle 78 ± 8.1%): 29 ± 6.3% | body weight and hematoxylin and eosin staining vs vehicle (sub-acute toxicity test): no obvious difference | serological and hematological analyses vs vehicle (sub-acute toxicity test): no significant difference | Kd (PLK3 [9]): > 10 µM | IC50 (FGFR1): 0.751 µM | IC50 (PLK2 [10]): 5.73 µM | IC50 (PLK3 [11]): 4.12 µM | IC50 (TOPK): 1.03 µM | inhibitory rate on tumor growth (breast xenograft models; breast xenograft models, 90 mg/kg (p.o)): more than 60% | body weight of experimental animals (breast xenograft models; xenograft mice, 30 and 90 mg/kg p.o. every day): no significant loss in body weight | Kd (PLK2 [12]): 0.653 µM | IC50 (EGFR): 0.664 µM | effect on centriole duplication ([13]; 0.5 μM): centriole duplications were conspicuously suppressed | effect on centriole numbers ([13]; low concentrations (≤0.25 μM)): increased the centriole numbers

— PMC6194023 (Cell Death & Disease, 2018)
